According to article PMC12914920, “Novel glycine amides, semicarbazides and fluoroallylamines as inhibitors of the amine oxidase vascular adhesion protein-1 (VAP-1)” (RSC Medicinal Chemistry, 2026):

Target: T1, VAP-1 in human plasma (Homo sapiens, UniProt Q16853)
T1 construct: from tissue; host or cells: human whole plasma from donated blood (Münster University Hospital)
T1 sequence (Q16853 27-763 limits assumed): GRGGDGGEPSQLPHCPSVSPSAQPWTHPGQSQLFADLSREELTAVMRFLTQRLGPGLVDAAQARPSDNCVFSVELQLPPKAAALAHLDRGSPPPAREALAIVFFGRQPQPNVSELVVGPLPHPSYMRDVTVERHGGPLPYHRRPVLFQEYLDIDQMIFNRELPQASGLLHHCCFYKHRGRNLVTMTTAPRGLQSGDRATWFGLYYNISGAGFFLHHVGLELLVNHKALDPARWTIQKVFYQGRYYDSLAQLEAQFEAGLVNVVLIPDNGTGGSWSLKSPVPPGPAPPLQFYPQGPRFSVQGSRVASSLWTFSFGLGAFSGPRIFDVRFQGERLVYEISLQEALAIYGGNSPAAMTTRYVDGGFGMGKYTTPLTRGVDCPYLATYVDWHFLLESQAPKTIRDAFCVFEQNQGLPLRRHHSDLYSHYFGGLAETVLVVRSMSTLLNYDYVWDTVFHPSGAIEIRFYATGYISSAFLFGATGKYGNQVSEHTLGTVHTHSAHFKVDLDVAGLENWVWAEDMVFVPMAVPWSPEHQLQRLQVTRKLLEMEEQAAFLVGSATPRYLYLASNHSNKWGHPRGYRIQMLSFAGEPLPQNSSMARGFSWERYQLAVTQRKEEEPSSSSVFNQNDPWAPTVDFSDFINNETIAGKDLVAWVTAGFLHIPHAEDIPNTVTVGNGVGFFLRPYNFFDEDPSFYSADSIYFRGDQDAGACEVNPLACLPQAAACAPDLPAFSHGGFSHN
Assay: Inhibition of VAP-1 activity in human whole plasma
Assay type: biochemical
Settings: 15 min pre-incubation of enzyme and inhibitor
Description: Preparation of human plasma: Human blood was collected in S-Monovette® Lithium-Heparin LH/7.5 mL (Sarstedt, Nümbrecht, Germany) during a blood donation at Münster University Hospital. Each about 5 mL of blood were pipetted into 10 mL Falcon Tubes and subsequently centrifuged at 1500 × g at 20 °C for 15 min. Aliquots of 800 μL plasma were transferred into 2 mL Eppendorf tubes and stored at −80 °C until further use.
Incubation procedure: A solution of the appropriate inhibitor in DMSO (concentration variable) (1.25 μL) was treated with human whole plasma (47.5 μL) and pre-incubated at 37 °C for 15 min. Subsequently, the enzyme reaction was started by the addition of a solution of the substrate 6-(5-phenyl-2H-tetrazol-2-yl)hexan-1-amine[47] (10 mM) in DMSO (1.25 μL). After 2 h of incubation, acetonitrile (50 μL) was added. The samples were cooled in an ice bath for 10 min and centrifuged at 12 000 × g and 10 °C for 10 min. […] Controls with DMSO (1.25 μL) instead of a DMSO solution of the inhibitor (1.25 μL) were prepared in the same manner in parallel (n = 3). Blanks were run by incubating a mixture of the substrate solution in DMSO and DMSO (1.25 μL each) and 47.5 μL of PBS in the same way. […] The peak ratios of enzyme product and internal standard obtained in the absence and presence of a test compound were compared, corrected for the blank value.

In the case of `N#Cc1ccc(-c2nnn(Cc3cccc(CNC(=O)CN)c3)n2)cc1` [Compound 63], the IC50 is reported as 320 nM.
